From patent publication US12630534B2 (TAKEDA PHARMACEUTICAL COMPANY LIMITED, priority 2020, dated 2026)

Target: T1, human GPR139 (Homo sapiens, UniProt Q6DWJ6)
T1 construct: expressed in transfected cells; host or cells: CHO-TREx (Life Technologies) cells, expression induced with doxycycline
T1 sequence (Q6DWJ6 1-353): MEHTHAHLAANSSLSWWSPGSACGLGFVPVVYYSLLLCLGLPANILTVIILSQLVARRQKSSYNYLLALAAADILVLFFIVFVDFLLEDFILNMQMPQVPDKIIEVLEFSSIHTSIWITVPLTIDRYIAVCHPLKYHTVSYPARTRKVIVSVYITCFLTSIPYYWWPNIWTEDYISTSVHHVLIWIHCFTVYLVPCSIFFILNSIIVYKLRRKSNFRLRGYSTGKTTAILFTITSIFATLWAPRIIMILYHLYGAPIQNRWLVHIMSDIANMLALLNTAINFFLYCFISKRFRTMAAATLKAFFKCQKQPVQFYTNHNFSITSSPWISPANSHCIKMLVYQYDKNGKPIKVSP
Assay: Inhibition rate of the amount of IP1 in GPR139-expressed CHO cells (inverse agonist assay, Test Example 2)
Assay type: cell-based
Details: relative value, inhibition rate of Example Compound 2 in Test Example 1 defined as 100%; for inhibition at 30 µM: CHO
Method: The measurement of IP1 was made using an IP-ONE HTFR assay kit (cis-bio) and CHO-TREx (Life Technologies) cells stably transfected with GPR139. The CHO-TREx cells expressed human GPR139 with a tetracycline-inducing element. The cells were cultured in a medium containing F12K and 10% tetracycline-free FBS, and the expression of human GPR139 was induced over the course of 17 hours under conditions of 37° C. and 5% CO2 in the presence of 2 μg/mL of doxycycline (Clontech, 631311) in the growth medium on the day before assay. On the day of the test, after the cells were washed with 10 mL of PBS, the cells were detached with TrypLE Express (Life Technologies) and centrifuged at 1,000 rpm to form pellets, and a cell suspension was then prepared using a stimulation buffer (cis-bio, included in the IP-ONE HTRF assay kit).
The compound was diluted with the stimulation buffer, and 4 μL was added to a 384-well white assay plate (Greiner). The cell suspension was added so that there were 2000 cells per well, and the assay plate was left to stand for 40 minutes at 37° C. Equal amounts of IP1-d2 and Ab-Crp solutions (both available from cis-bio, included in the IP-ONE HTRF assay kit) prepared with a lysis buffer (cis-bio, included in the IP-ONE HTRF assay kit) were mixed, and 4 μL was added to the assay plate and left to stand for one hour at room temperature. After the fluorescence strengths of two wavelengths were measured by the HTRF settings of Envision (PerkinElmer), the value of Ratio={(Signal 665 nm)/(Signal 615 nm)}×10000 was calculated.
Measurement of the Inhibition Rate of the Amount of IP1 in GPR139-Expressed CHO Cells (Inverse Agonist Assay)
The activities of the compounds of Examples 1 and 3 to 167 were expressed as relative values in Table 2 by measuring the inhibition rate of the amount of IP1 with the same method as in Test Example 1 and defining the inhibition rate of the amount of IP1 of Example Compound 2 in Test Example 1 as […].

| Compound | inhibition at 30 µM | Inhibition Rate at 30 μM |
| --- | --- | --- |
| CCn1cc(Cn2cc(C)n(-c3cc(OCC4CCO4)cc(C(F)(F)F)c3)c2=O)cn1 (centres unmarked) [Example 49, 1-[(1-ethyl-1H-pyrazol-4-yl)methyl]-4-methyl-3-{3-[(oxetan-2-yl)methoxy]-5-(trifluoromethyl)phenyl}-1,3-dihydro-2H-imidazol-2-one] | 102% |  |
| CCn1cc(Cn2cc(C)n(-c3cc(OCC4(F)CCC4)cc(C(F)(F)F)c3)c2=O)cn1 [Example 52, 1-[(1-ethyl-1H-pyrazol-4-yl)methyl]-3-{3-[(1-fluorocyclobutyl)methoxy]-5-(trifluoromethyl)phenyl}-4-methyl-1,3-dihydro-2H-imidazol-2-one] | 99% |  |
| CCn1cc(Cn2cc(C)n(-c3cc(OCC4(F)CC4)cc(C(F)(F)F)c3)c2=O)cn1 [Example 56, 1-[(1-ethyl-1H-pyrazol-4-yl)methyl]-3-{3-[(1-fluorocyclopropyl)methoxy]-5-(trifluoromethyl)phenyl}-4-methyl-1,3-dihydro-2H-imidazol-2-one] | 98% |  |
| CC(C)n1cc(Cn2ccn(-c3cc(N(C)C4CCOCC4)cc(C(F)(F)F)c3F)c2=O)cn1 [Example 61, 1-{2-fluoro-5-[methyl(oxan-4-yl)amino]-3-(trifluoromethyl)phenyl}-3-{[1-(propan-2-yl)-1H-pyrazol-4-yl]methyl}-1,3-dihydro-2H-imidazol-2-one] | 102% |  |
| Cc1cn(-c2nc(N3CCO[C@H](C)C3)cc(C(F)(F)F)c2F)c(=O)n1Cc1cnn(C(C)C)c1 [Example 64, 1-{3-fluoro-6-[(2R)-2-methylmorpholin-4-yl]-4-(trifluoromethyl)pyridin-2-yl}-4-methyl-3-{[1-(propan-2-yl)-1H-pyrazol-4-yl]methyl}-1,3-dihydro-2H-imidazol-2-one] | 98% |  |
| CCn1cc(Cn2cc(C)n(-c3cc(Br)cc(OCC4CC(F)(F)C4)c3)c2=O)cn1 [Example 65, 3-{3-bromo-5-[(3,3-difluorocyclobutyl)methoxy]phenyl}-1-[(1-ethyl-1H-pyrazol-4-yl)methyl]-4-methyl-1,3-dihydro-2H-imidazol-2-one] | 98% |  |
| CCn1cc(Cn2cc(C)n(-c3cc(OC[C@@H]4CCCO4)cc(C(F)(F)F)c3)c2=O)cn1 [Example 66, 1-[(1-ethyl-1H-pyrazol-4-yl)methyl]-4-methyl-3-[3-{[(2S)-oxolan-2-yl]methoxy}-5-(trifluoromethyl)phenyl]-1,3-dihydro-2H-imidazol-2-one] | 99% |  |
| CCn1cc(Cn2cc(C)n(-c3cc(OCC4CC(F)(F)C4)cc(C4CC4)c3)c2=O)cn1 [Example 67, 3-{3-cyclopropyl-5-[(3,3-difluorocyclobutyl)methoxy]phenyl}-1-[(1-ethyl-1H-pyrazol-4-yl)methyl]-4-methyl-1,3-dihydro-2H-imidazol-2-one] | 98% |  |
| CCn1cc(Cn2cc(C)n(-c3cc(OCC4CC(F)(F)C4)cc(C(F)F)c3)c2=O)cn1 [Example 68, 3-{3-[(3,3-difluorocyclobutyl)methoxy]-5-(difluoromethyl)phenyl}-1-[(1-ethyl-1H-pyrazol-4-yl)methyl]-4-methyl-1,3-dihydro-2H-imidazol-2-one] | 98% |  |
| CCn1cc(Cn2ccn(-c3cc(OCC4CC(F)(F)C4)cc(C(F)F)c3Cl)c2=O)cn1 [Example 69, 1-{2-chloro-5-[(3,3-difluorocyclobutyl)methoxy]-3-(difluoromethyl)phenyl}-3-[(1-ethyl-1H-pyrazol-4-yl)methyl]-1,3-dihydro-2H-imidazol-2-one] | 95% |  |
| CCn1cc(Cn2cc(C)n(-c3cc(OCC(F)F)cc(N4CCO[C@H](C)C4)c3)c2=O)cn1 [Example 71, 3-{3-(2,2-difluoroethoxy)-5-[(2R)-2-methylmorpholin-4-yl]phenyl}-1-[(1-ethyl-1H-pyrazol-4-yl)methyl]-4-methyl-1,3-dihydro-2H-imidazol-2-one] | 98% |  |

Results, then the molecule that gave them:

| inhibition at 30 µM | Inhibition Rate at 30 μM | Compound |
| --- | --- | --- |
|  | 102% | CCn1cc(Cn2cc(C)n(-c3cc(OCC4CC4(F)F)cc(C(F)(F)F)c3)c2=O)cn1 (centres unmarked) [Example 50, 3-{3-[(2,2-difluorocyclopropyl)methoxy]-5-(trifluoromethyl)phenyl}-1-[(1-ethyl-1H-pyrazol-4-yl)methyl]-4-methyl-1,3-dihydro-2H-imidazol-2-one] |
|  | 102% | CCn1cc(Cn2cc(C)n(-c3cc(OCC4CC4(F)F)cc(C(F)(F)F)c3)c2=O)cn1 (centres unmarked) [Example 51, 3-{3-[(2,2-difluorocyclopropyl)methoxy]-5-(trifluoromethyl)phenyl}-1-[(1-ethyl-1H-pyrazol-4-yl)methyl]-4-methyl-1,3-dihydro-2H-imidazol-2-one] |
| 101% |  | CCn1cc(Cn2c(C)cn(-c3cc(N(C)C4CCOCC4)cc(C(F)(F)F)c3F)c2=O)cn1 [Example 53, 3-[(1-ethyl-1H-pyrazol-4-yl)methyl]-1-{2-fluoro-5-[methyl(oxan-4-yl)amino]-3-(trifluoromethyl)phenyl}-4-methyl-1,3-dihydro-2H-imidazol-2-one] |
| 101% |  | CCn1cc(Cn2c(C)cn(-c3cc(N4CCOC(F)(F)C4)cc(C(F)(F)F)c3F)c2=O)cn1 [Example 54, 1-[5-(2,2-difluoromorpholin-4-yl)-2-fluoro-3-(trifluoromethyl)phenyl]-3-[(1-ethyl-1H-pyrazol-4-yl)methyl]-4-methyl-1,3-dihydro-2H-imidazol-2-one] |
| 101% |  | CCn1cc(Cn2c(C)cn(-c3cc(N4CCO[C@H](C)C4)cc(OCC(F)(F)F)c3F)c2=O)cn1 [Example 55, 3-[(1-ethyl-1H-pyrazol-4-yl)methyl]-1-{2-fluoro-5-[(2R)-2-methylmorpholin-4-yl]-3-(2,2,2-trifluoroethoxy)phenyl}-4-methyl-1,3-dihydro-2H-imidazol-2-one] |
| 101% |  | CCn1cc(Cn2c(C)cn(-c3cc(N4CCO[C@H](C)C4)cc(C(F)(F)F)c3Cl)c2=O)cn1 [Example 57, 1-{2-chloro-5-[(2R)-2-methylmorpholin-4-yl]-3-(trifluoromethyl)phenyl}-3-[(1-ethyl-1H-pyrazol-4-yl)methyl]-4-methyl-1,3-dihydro-2H-imidazol-2-one] |
| 98% |  | CCn1cc(Cn2c(C)cn(-c3cc(N(C)C4CCOCC4)cc(C(F)(F)F)c3Cl)c2=O)cn1 [Example 58, 1-{2-chloro-5-[methyl(oxan-4-yl)amino]-3-(trifluoromethyl)phenyl}-3-[(1-ethyl-1H-pyrazol-4-yl)methyl]-4-methyl-1,3-dihydro-2H-imidazol-2-one] |
| 102% |  | CCn1cc(Cn2c(C)c(C)n(-c3nc(N4CCO[C@H](C)C4)cc(C(F)(F)F)c3F)c2=O)cn1 [Example 59, 1-[(1-ethyl-1H-pyrazol-4-yl)methyl]-3-{3-fluoro-6-[(2R)-2-methylmorpholin-4-yl]-4-(trifluoromethyl)pyridin-2-yl}-4,5-dimethyl-1,3-dihydro-2H-imidazol-2-one] |
| 101% |  | CCn1cc(Cn2c(C)c(C)n(-c3cc(C(F)(F)F)cc(N4CCO[C@H](C)C4)n3)c2=O)cn1 [Example 60, 1-[(1-Ethyl-1H-pyrazole-4-yl)methyl]-4,5-dimethyl-3-{6-[(2R)-2-methylmorpholine-4-yl]-4-(trifluoromethyl)pyridine-2-yl}-1,3-dihydro-2H-imidazole-2-one] |
| 99% |  | CCn1cc(Cn2c(C)cn(-c3cc(N4CCO[C@H](C)C4)cc(C(F)(F)F)c3C)c2=O)cn1 [Example 62, 3-[(1-ethyl-1H-pyrazol-4-yl)methyl]-4-methyl-1-{2-methyl-5-[(2R)-2-methylmorpholin-4-yl]-3-(trifluoromethyl)phenyl}-1,3-dihydro-2H-imidazol-2-one] |
| 100% |  | CCn1cc(Cn2c(C)c(C)n(-c3cc(N4CCOC(F)(F)C4)cc(C(F)(F)F)c3)c2=O)cn1 [Example 63, 1-[3-(2,2-difluoromorpholin-4-yl)-5-(trifluoromethyl)phenyl]-3-[(1-ethyl-1H-pyrazol-4-yl)methyl]-4,5-dimethyl-1,3-dihydro-2H-imidazol-2-one] |
| 100% |  | CCn1cc(Cn2c(C)c(C)n(-c3cc(N4CCOC(F)(F)C4)cc(C(F)(F)F)c3F)c2=O)cn1 [Example 70, 1-[5-(2,2-difluoromorpholin-4-yl)-2-fluoro-3-(trifluoromethyl)phenyl]-3-[(1-ethyl-1H-pyrazol-4-yl)methyl]-4,5-dimethyl-1,3-dihydro-2H-imidazol-2-one] |
